Data taken from patent EP0103636B1, “USE OF OPIUM ANTAGONISTS FOR THE MANUFACTURE OF MEDICAMENTS FOR CONTROLLING GASTROINTESTINAL DYSMOTILITY” (ROCKEFELLER UNIVERSITY, priority 1982, dated 1983).

Columns and labels:
opioid receptors = conditions: Wikler, A., Int. J. of the Addictions 12(7) 869, 1977; cited from earlier work
chronic constipation [1] = assay: Example I: stool weight of a patient with chronic constipation given naloxone (single blind, placebo first); type: in vivo, human
Description: A person with a history of chronic constipation for a period of over twenty years, requiring daily use of large doses of laxatives plus frequent enemas, was admitted to the research hospital on day one at approximately 4:00 p.m. They were given a standard laxative regimen documented to be inadequate to effect a spontaneous bowel movement, and placed on a high residue diet.
During the first 24 hours they were treated with a placebo (Infusion A) according to the following schedule:
The total dosage per day was 21.6 mg.
During the five days that the patient was under hospital care the stools were collected and weighed. The results were as follows:
The experiment was conducted as a single blind. The patient was not aware of whether they were receiving a placebo or the active agent.

chronic constipation [2] = assay: Example II: stool weight of a second patient with chronic constipation given naloxone; type: in vivo, human
From the text: A second patient with a history of over twenty years of chronic constipation, intractable to laxatives, who for the past several months was only relieved by enema treatment was admitted to the hospital and placed on a high residue diet.

chronic constipation [3] = assay: Table 1: five inpatient and outpatient studies on Patient Number 1 (chronic constipation): fecal weight, fecal fat, symptoms; type: in vivo, human
From the text: The tables set forth the significant details and results of a number of studies conducted with different patients suffering from various forms of intestinal dysmotility. […] The first study was of two days duration. The lengths of subsequent studies are as indicated.
The reports Tables 1 to 5 are for patients with chronic constipation. Those in Tables 6, 7 and 8 are for patients with irritable bowel syndrome.

[4] = Adverse effects by clinical examination, blood and urine analysis in Examples I and II; type: in vivo, human
From the text: Samples of the patient's blood and urine were collected each day and subjected to analysis.

[5] = Day 2, naloxone intravenous (29.2 mg per Table 1)
[6] = Day 3, naloxone oral 21.6 mg per day
[7] = Day 4, naloxone oral 21.6 mg per day
[8] = Day 5, naloxone oral 21.6 mg per day
[9] = Day 1, 29.2 mg naloxone, intravenous
[10] = Patient Number 1, Study #1 (inpatient), i.v., Study Day 2, total 24 hour dose 29.2 mg
[11] = Patient Number 1, Study #2 (inpatient), p.o., Study Day 1, total 24 hour dose 21.6 mg
[12] = Patient Number 1, Study #2 (inpatient), p.o., Study Day 2, total 24 hour dose 21.6 mg
[13] = Patient Number 1, Study #2 (inpatient), p.o., Study Day 3, total 24 hour dose 21.6 mg

## O=C1CC[C@@]2(O)[C@H]3Cc4ccc(O)c5c4[C@@]2(CCN3CC2CC2)[C@H]1O5 [Naltrexone, N-cyclopropylmethyl-14-hydroxydihydronormorphinone]
Opioid receptors
  agonistic activity: slight agonistic activity

## C=CCN1CC[C@]23c4c5ccc(O)c4O[C@H]2C(=O)CC[C@@]3(O)[C@H]1C5 [naloxone, N-allyl-14-hydroxydihydronormorphinone]
Chronic constipation [1]; [5]
  STOOL WEIGHT GRAMS Wet Weight: 649 Grams
  Stool Weight Grams Dry Weight: 52 Grams
Chronic constipation [1]; [6]
  STOOL WEIGHT GRAMS Wet Weight: 985 Grams
  Stool Weight Grams Dry Weight: 77 Grams
Chronic constipation [1]; [7]
  STOOL WEIGHT GRAMS Wet Weight: 997 Grams
  Stool Weight Grams Dry Weight: 77 Grams
Chronic constipation [1]; [8]
  STOOL WEIGHT GRAMS Wet Weight: 806 Grams
  Stool Weight Grams Dry Weight: 65 Grams
Chronic constipation [2]; [9]
  STOOL WEIGHT GRAMS Wet Weight: 84 GRAMS
  Stool Weight Grams Dry Weight: 18.5 GRAMS
Chronic constipation [2]; Day 3, 14.4 mg naloxone, oral
  STOOL WEIGHT GRAMS Wet Weight: 35 GRAMS
  Stool Weight Grams Dry Weight: 8.2 GRAMS
Chronic constipation [2]; Day 4, 21.6 mg naloxone, oral
  STOOL WEIGHT GRAMS Wet Weight: 125 GRAMS
  Stool Weight Grams Dry Weight: 66.4 GRAMS
Chronic constipation [2]; Day 5, 21.6 mg naloxone, oral
  STOOL WEIGHT GRAMS Wet Weight: 230 GRAMS
  Stool Weight Grams Dry Weight: 82.4 GRAMS
Chronic constipation [2]; Day 6, 7.2 mg naloxone, oral
  STOOL WEIGHT GRAMS Wet Weight: 34 GRAMS
Chronic constipation [3]; [10]
  Fecal Dry Wt. (gm): 52 gm
  Fecal Wet Wt. (gm): 649 gm
  Symptoms, Signs, Comments: Marked improvement
Chronic constipation [3]; [11]
  Fecal Dry Wt. (gm): 77 gm
  Fecal Wet Wt. (gm): 985 gm
  Symptoms, Signs, Comments: Marked improvement
Chronic constipation [3]; [12]
  Fecal Dry Wt. (gm): 77 gm
  Fecal Wet Wt. (gm): 997 gm
  Symptoms, Signs, Comments: Marked improvement
Chronic constipation [3]; [13]
  Fecal Dry Wt. (gm): 65 gm
  Fecal Wet Wt. (gm): 806 gm
  Symptoms, Signs, Comments: Marked improvement
Chronic constipation [3]; Patient Number 1, Study #3 (outpatient), p.o., Study Day 1, total 24 hour dose 21.6 mg
  Symptoms, Signs, Comments: Average day
Chronic constipation [3]; Patient Number 1, Study #3 (outpatient), p.o., Study Day 2, total 24 hour dose 21.6 mg
  Symptoms, Signs, Comments: Better than average day
Chronic constipation [3]; Patient Number 1, Study #3 (outpatient), p.o., Study Day 3, total 24 hour dose 21.6 mg
  Symptoms, Signs, Comments: Much better than average day
Chronic constipation [3]; Patient Number 1, Study #4 (inpatient), i.v., Study Day 2, total 24 hour dose 29.2 mg
  Fecal Wet Wt. (gm): 775 gm
Chronic constipation [3]; Patient Number 1, Study #4 (inpatient), i.v., Study Day 3, total 24 hour dose 29.2 mg
  Fecal Wet Wt. (gm): 859 gm
Chronic constipation [3]; Patient Number 1, Study #5 (outpatient), route not given, Study Day 1, total 24 hour dose 21.6 mg
  Symptoms, Signs, Comments: Much better than average
Chronic constipation [3]; Patient Number 1, Study #5 (outpatient), route not given, Study Day 2, total 24 hour dose 21.6 mg
  Symptoms, Signs, Comments: Much better than average
Chronic constipation [3]; Patient Number 1, Study #5 (outpatient), route not given, Study Day 3, total 24 hour dose 21.6 mg
  Symptoms, Signs, Comments: Much better than average
[4]; Example I patient, naloxone intravenous then oral 21.6 mg per day
  adverse effects (analysis of blood and urine collected each day): No adverse effects
[4]; Example II patient, naloxone 29.2 mg intravenous, then 7.2 to 21.6 mg oral
  adverse effects (clinical examinations, blood or urine analysis): No adverse effects
